Where “and” joins values, the source holds several entries; their conditions need not be identical. Equal values may be shown once. Marks after values point to notes of the source that are not given here.
Columns and labels:
reactive astrocytes [1] = test: GM-CSF concentration in conditioned media from reactive astrocytes (cytometry); assay type: cell-based, mice; settings: LPS+IFNγ
Protocol: (§1) Mice mixed glial cells were cultured as described by McCarthy et al., 1980. Primary mice glial cells were prepared from the cortical of newborn Swiss mice (1 day). Briefly, meninges and blood vessels of the mice cortex were removed and placed in ice-cold medium of L15 containing 2% of PS and 1% of BSA. Tissues were dissociated with 0.25% trypsin-EDTA at 37° C. for 10 min. Cells were then submitted to a supplementary incubation of 15 min at 37° C. in presence of deoxyribonuclease I (final concentration of 0.5 mg/mL). Cells were then pelleted (5 min at 1200 rpm) and trypsinization was stopped by adding DMEM supplemented with 10% FCS, 1 mM of Na/pyruvate (PanBiotech, ref: P04-43100, batch: 3470914) and 2% PS. Cells suspension was mechanically dissociated and filtered through 40 μm diameter nylon meshes (BD Falcon, Ref: 352340). The cells were collected by centrifugation at 1200 rpm/min for 10 min, re-suspended in culture medium and then plated in culture flasks (Dutscher, ref: 690175). Cells were seeded at a density of 1.25×10^5 cells/cm2 and cultured in 5% CO2 at 37° C. Medium was changed three times per week.
(§2) Purification of astrocytes cells was done as described by Kim et al., 2006. After 14 days, the flasks were shaken on a rotary shaker at 200 rpm for 3 h. The resulting cell suspension rich in microglia was removed. Cells remaining in the flasks from which microglia had been harvested correspond to astrocytes at a purity of about 90%. Astrocytes were cultured in DMEM supplemented with 10% FCS, 1 mM of Na/pyruvate and 2% at 5% CO2 and 37° C. in flasks of 25 cm2.
(§3) When reaching confluence, primary astroglial cells were first incubated for 2 hours with Fingolimod (1 nM, 10 nM) or Laquinimod (1 nM, 10 nM, 100 nM, 1 μM, 10 μM) alone or in co-incubation or control medium.
(§4) At the end of 2 hours treatment with test compounds, astrocyte culture was activated with serum-free DMEM containing LPS (100 ng/mL; Sigma, Serotype 026:B6, ref: L2654; batch: 123M4052V) and IFNγ (10 ng/mL; Peprotech; ref: 315-05; batch: 061398 L0513) for 6 hours (Kim and Lee, 2013; Shu et al., 2014; Gresa-Arribas et al., 2012) in absence or presence of test compounds.
(§5) To obtain LPS/INFγ free conditioned media (CM), after 6 hours, cells were washed twice with DMEM and medium was replaced with DMEM supplemented with B27 (2%), L-glutamine (2 mM), PS solution (2%). LCM was collected 24 hrs after. For control, cells were incubated with medium not containing LPS/INFγ. […]

reactive astrocytes [2] = test: NO release in conditioned media from reactive astrocytes (ELISA); assay type: cell-based, mice; settings: LPS+IFNγ
Protocol: as §1, §2, §3, §4, §5

reactive astrocytes [3] = test: IL-12p70 concentration in conditioned media from reactive astrocytes (cytometry); assay type: cell-based, mice; settings: LPS+IFNγ
Protocol: as §1, §2, §3, §4, §5

cortical neurons = test: Cortical neuron survival after 72 h with conditioned media from reactive astrocytes; assay type: cell-based, mice; settings: conditioned media 72 h; for % cell survival: % of control
Protocol: Mice cortical neurons were cultured as described by Singer et al., 1999. Briefly pregnant female mice of 13 days gestation were killed by cervical dislocation (Mice Swiss; Janvier Lab). The foetuses were removed from the uterus. The cortexes were removed and placed in ice-cold medium of Leibovitz (L15, Panbiotech, ref: P04-27055, batch: 9310614) containing 2% of Penicillin 10.000 U/ml and Streptomycin 10 mg/ml (PS, Panbiotech, ref: P06-07100, batch: 8460514) and 1% of Bovine Serum Albumin (BSA, Panbiotech, Ref: P06-1391100, batch: H140603). Cortexes were dissociated by trypsin-EDTA (Panbiotech, Ref: P10-023100, batch: 3330914) for 20 min at 37° C. The reaction was stopped by the addition of Dulbecco's modified Eagle's Medium (DMEM, Panbiotech, Ref P04-03600, batch: 1300714) containing DNasel grade II (0.1 mg/ml, Panbiotech, ref: P60-37780100, batch: H140508) and 10% of Foetal Calf Serum (FCS, Invitrogen, ref: 10270-098, batch: 4103912K). Cells were then mechanically dissociated by 3 serial passages through a 10 ml pipette. Cells were then centrifuged at 515×g for 10 min at 4° C. The supernatant was discarded and the pellet of cells was re-suspended in a defined culture medium consisting of Neurobasal (Nb, Invitrogen, ref: 21103, batch: 1673148) supplemented with B27 (2%, Invitrogen, ref: 17504, batch: 1672731), L-glutamine (2 mM, Panbiotech, ref: P04-80100, batch: 6620314), 2% of PS solution and 10 ng/ml of Brain-derived neurotrophic factor (BDNF, PanBiotech, Ref: CB-1115002, Batch: 121027). Viable cells were counted in a Neubauer cytometer using the trypan blue exclusion test. The cells were seeded at a density of 30 000 cells/well in 96 well-plates pre-coated with poly-D-lysine (Greiner ref: 655930, batch: E140305F) and were cultured at +37° C. in a humidified air (95%)/CO2 (5%) atmosphere.
as §1, §2, §3
as §4, with “compounds. […]” for “compounds.”

[4] = system: astrocytic and microglial activation and acute axonal damage; settings: cited from earlier work; for demyelination, astrocytic and microglial activation: Kim, 2011
reactive astrocytes [5] = test: CCL7 release in conditioned media from reactive astrocytes (ELISA); assay type: cell-based, mice; settings: LPS+IFNγ
Protocol: as §1, §2, §3, §4, §5

[6] = Mus musculus, Astrocyte, 1 nM, read-out: % inhibition of GM-CSF release
[7] = Mus musculus, Astrocyte, 10 nM, read-out: % inhibition of GM-CSF release
[8] = Mus musculus, Astrocyte, 100 nM
[9] = Mus musculus, Astrocyte, 1 nM, read-out: % inhibition of IL-12p70 release
[10] = Mus musculus, Astrocyte, 10 nM, read-out: % inhibition of IL-12p70 release

## CCN(C(=O)c1c(O)c2c(Cl)cccc2n(C)c1=O)c1ccccc1 [Laquinimod]
Reactive astrocytes [1]; 1 nM
  GM-CSF content: 207.71 pg/mL
Reactive astrocytes [1]; 10 nM
  GM-CSF content: 209.51 pg/mL
Reactive astrocytes [1]; 100 nM
  GM-CSF content: 179.39 pg/mL
Reactive astrocytes [1]; 1 μM
  GM-CSF content: 154 pg/mL and 154.26 pg/mL
Reactive astrocytes [1]; [6]
  inhibition at 0.001 µM: 14.5%
Reactive astrocytes [1]; [7]
  inhibition at 0.01 µM: 13.7%
Reactive astrocytes [1]; Mus musculus, Astrocyte, 100 nM, read-out: % inhibition of GM-CSF release
  inhibition at 0.1 µM: 26.1%
Reactive astrocytes [1]; Mus musculus, Astrocyte, 1 μM, read-out: % inhibition of GM-CSF release
  inhibition at 1 µM: 36.5%
Reactive astrocytes [2]; 1 nM
  NO content: 26.44 pg/mL and 26.447 pg/mL
Reactive astrocytes [2]; 10 nM
  NO content: 21.1 pg/mL and 21.093 pg/mL
Reactive astrocytes [2]; 100 nM
  NO content: 17.98 pg/mL and 17.983 pg/mL
Reactive astrocytes [2]; 1 μM
  NO content: 16.11 pg/mL and 16.111 pg/mL
Reactive astrocytes [2]; Mus musculus, Astrocyte, 1 nM
  inhibition at 0.001 µM: 39%
Reactive astrocytes [2]; Mus musculus, Astrocyte, 10 nM
  inhibition at 0.01 µM: 51.3%
Reactive astrocytes [2]; [8]
  inhibition at 0.1 µM: 58.5%
Reactive astrocytes [2]; Mus musculus, Astrocyte, 1 μM
  inhibition at 1 µM: 62.8%
Reactive astrocytes [3]; 1 nM
  IL-12p70 content: 6.53 pg/mL
Reactive astrocytes [3]; 10 nM
  IL-12p70 content: 6.29 pg/mL
Reactive astrocytes [3]; 100 nM
  IL-12p70 content: 3.84 pg/mL
Reactive astrocytes [3]; 1 μM
  IL-12p70 content: 2.55 pg/mL
Reactive astrocytes [3]; [9]
  inhibition at 0.001 µM: 34.3%
Reactive astrocytes [3]; [10]
  inhibition at 0.01 µM: 36.7%
Reactive astrocytes [3]; Mus musculus, Astrocyte, 100 nM, read-out: % inhibition of IL-12p70 release
  inhibition at 0.1 µM: 61.4%
Reactive astrocytes [3]; Mus musculus, Astrocyte, 1 μM, read-out: % inhibition of IL-12p70 release
  inhibition at 1 µM: 74.3%
Cortical neurons; 1 nM
  % cell survival: 73%
  % cell death: 27%
  % inhibition of cortical neuron cell death: 20.6* %
Cortical neurons; 10 nM
  % cell survival: 80%
  % cell death: 20%
  % inhibition of cortical neuron cell death: 41.2%
Cortical neurons; 100 nM
  % cell survival: 83%
  % cell death: 17%
  % inhibition of cortical neuron cell death: 50.0%
Cortical neurons; 1 μM
  % cell survival: 92%
  % cell death: 8%
  % inhibition of cortical neuron cell death: 76.5%
[4]; Brück, 2012
  acute axonal damage: reduces it completely
[4]
  demyelination, astrocytic and microglial activation: partial response
Reactive astrocytes [5]; 1 nM
  CCL-7 content: 26.447 pg/mL
Reactive astrocytes [5]; 10 nM
  CCL-7 content: 21.093 pg/mL
Reactive astrocytes [5]; Mus musculus, Astrocyte, 1 nM
  inhibition at 0.001 µM: 39%
Reactive astrocytes [5]; Mus musculus, Astrocyte, 10 nM
  inhibition at 0.01 µM: 51.3%
Reactive astrocytes [5]; [8]
  inhibition at 0.1 µM: 58.5%
Reactive astrocytes [5]; Mus musculus, Astrocyte, 1 μM
  inhibition at 1 µM: 62.8%

## CCCCCCCCc1ccc(CCC(N)(CO)CO)cc1 [Fingolimod]
Reactive astrocytes [1]; 1 nM
  GM-CSF content: 204.09 pg/mL
Reactive astrocytes [1]; 10 nM
  GM-CSF content: 147.56 pg/mL
  GM-CSF release: 148 pg/mL
Reactive astrocytes [1]; [6]
  inhibition at 0.001 µM: 16%
Reactive astrocytes [1]; [7]
  inhibition at 0.01 µM: 39.2%
Reactive astrocytes [2]; 1 nM
  NO content: 24.39 pg/mL and 24.396 pg/mL
Reactive astrocytes [2]; 10 nM
  NO content: 17.37 pg/mL and 17.371 pg/mL
Reactive astrocytes [2]; Mus musculus, Astrocyte, 1 nM
  inhibition at 0.001 µM: 43.7%
Reactive astrocytes [2]; Mus musculus, Astrocyte, 10 nM
  inhibition at 0.01 µM: 59.9%
Reactive astrocytes [3]; 1 nM
  IL-12p70 content: 6.15 pg/mL
Reactive astrocytes [3]; 10 nM
  IL-12p70 content: 4.25 pg/mL
Reactive astrocytes [3]; [9]
  inhibition at 0.001 µM: 38.1%
Reactive astrocytes [3]; [10]
  inhibition at 0.01 µM: 57.2%
Cortical neurons; 1 nM
  % cell survival: 80%
  % cell death: 20%
  % inhibition of cortical neuron cell death: 41.2%
Cortical neurons; 10 nM
  % cell survival: 85%
  % cell death: 15%
  % inhibition of cortical neuron cell death: 55.9* %
[4]
  demyelination, astrocytic and microglial activation: partial response
Reactive astrocytes [5]; 1 nM
  CCL-7 content: 24.396 pg/mL
Reactive astrocytes [5]; Mus musculus, Astrocyte, 1 nM
  inhibition at 0.001 µM: 43.7%
Reactive astrocytes [5]; Mus musculus, Astrocyte, 10 nM
  inhibition at 0.01 µM: 59.9%
